Test results published in US20220340665A1, “INHIBITOR AGAINST EXPRESSION OF IMMUNE CHECKPOINT MOLECULE” (RENASCIENCE INC., priority 2019, published 2022).
Entries after “also recorded” stand apart in the source; their conditions may differ.

Columns and labels:
[1] = system: mouse leukemia cell line (32Dp210); experiment: PD-L1 expression in leukemic cells of mice transplanted with 32Dp210 (Experimental Example 5); type: in vivo, mice (C3H/HEJ); conditions: peripheral blood, 10 mg/kg orally once daily, 7 days, vs vehicle, listed as PAI-1 inhibitor
Description: Specifically, 5×10^5 cells of a mouse leukemia cell line (32Dp210) were transplanted into mice (C3H/HEJ), and engraftment was confirmed one week later. Subsequently, the PAI-1 inhibitor was orally administered once daily at 10 mg/kg for a total of 7 days. On the next day of the final administration, the peripheral blood or the spleen was collected from the mice. The spleen was mechanically dispersed by grinding through nylon mesh. The peripheral blood and spleen cells were independently hemolyzed with an ammonium chloride solution and then stained with an anti-PD-L1 antibody (clone name: 10F.G92) labeled with Allophycocyanin (APC) to determine the PD-L1 expression level in the leukemic cells with a flow cytometer. As a comparative control experiment, instead of the PAI-1 inhibitor, only physiological saline (vehicle) was administered to the mice transplanted with the mouse leukemia cell line, and the PD-L1 expression level in the leukemic cells was determined with a flow cytometer in the same manner as described above.

[2] = system: M2 macrophages (CD11b+CD206+); experiment: PD-L1 expression in M2 macrophages from cultured mouse spleen cells (Experimental Example 6); type: cell-based; conditions: inhibitor 50 μM with rPAI-1 100 nM, 4 days; listed as PAI-1 inhibitor
Description: Specifically, 5×10^6 mouse spleen cells were cultured on a 24-well plate at 37° C., 5% CO2, overnight. After floating cells were removed, rPAI-1 (100 nM) was added, and culturing was performed at 37° C., 5% CO2, for 4 days. After culture, adherent cells were collected by trypsin treatment and stained with an anti-CD11b antibody and an anti-CD206 antibody, in addition to an anti-PD-L1 antibody. Then, gating was performed on CD11b and CD206 double-positive (CD11b^+CD206^+) M2 macrophages, and the PD-L1 expression level thereof was determined with a flow cytometer. As a comparative control experiment, the PD-L1 expression level in untreated mouse spleen cells (control) was determined in the same manner. Further, the PAI-1 inhibitor (50 μM) was added to the same mouse spleen cells, together with rPAI-1 (100 nM), followed by culture under the same conditions as described above. Then, adherent cells were collected and the PD-L1 expression level was determined with a flow cytometer in the same manner.

[3] = system: M2 macrophages (CD11b+CD206+); experiment: PD-L1 expression in M2 macrophages of orally dosed mice (Experimental Example 7); type: in vivo, mice (C57BL6); conditions: peripheral blood; 10 mg/kg orally once daily, 7 days; vs vehicle
Description: Mice (C57BL6) were orally administered with the PAI-1 inhibitor once daily at 10 mg/kg for a total of 7 days. On the next day of the final administration, the peripheral blood or the spleen was collected from the mice. The spleen was mechanically dispersed through nylon mesh. The peripheral blood and spleen cells were independently hemolyzed with an ammonium chloride solution, and the PD-L1 expression level in M2 macrophages (CD11b^+CD206^+) was determined with a flow cytometer. As a comparative control experiment, the peripheral blood or the spleen was collected in the same manner from a mouse group to which only physiological saline (vehicle) was administered to determine the PD-L1 expression level in M2 macrophages (CD11b^+CD206^+).

[4] = system: mouse colorectal cancer cell line (MC38); experiment: Size of subcutaneous MC38 tumor mass in mice (Experimental Example 11); type: in vivo, mice (C57BL6); conditions: PAI-1 inhibitor 10 mg/kg orally daily 14 days, anti-PD1 antibody 15 μg i.p. every 3 days, 3 times, 14 and 21 days
Description: Mice (C57BL6) were divided into 1) an untreated group (vehicle) (n=15), 2) a single-administration group of anti-PD1 antibody (anti-PD-1 Ab), 3) a single-administration group of PAI-1 inhibitor (PAI-1 inhibitor), and 4) a combination group of anti-PD1 antibody and PAI-1 inhibitor (anti-PD-1 Ab+PAI-1 inhibitor) (n=18 for 2) to 4)). Then, 5×10^5 cells of the mouse colorectal cancer cell line (MC38) were transplanted subcutaneously into each mouse. One week after transplantation, engraftment of more than 5 mm of a tumor mass in the major axis was confirmed. Subsequently, the PAI-1 inhibitor (10 mg/kg) was orally administered once daily to groups 3) and 4) above for a total of 14 consecutive days. For groups 2) and 4), 15 μg of anti-PD1 antibody was intraperitoneally administered every 3 days (3 times in total) from the same day as the administration day of the PAI-1 inhibitor. For the untreated group, physiological saline was orally administered. The size of the tumor mass was measured 2 weeks (14 days) and 3 weeks (21 days) after the transplantation (0 days).

[5] = system: regulatory T cells (Treg); experiment: Regulatory T cells in MC38 tumor mass by flow cytometry (Experimental Example 14); type: in vivo, mice (C57BL6); conditions: oral administration for one week, vs vehicle
Description: 1) The untreated group and 3) the single-administration group of PAI-1 inhibitor (cancer-bearing mice) of Experimental Example 11, after tumor engraftment, were orally administered with physiological saline (vehicle) or the PAI-1 inhibitor for one week. Thereafter, the tumors were collected, the cells were stained with an anti-CD45 antibody, an anti-CD4 antibody, an anti-CD25 antibody, and an anti-foxp3 antibody, and the percentage of regulatory T cells (Treg) in the tumor mass was analyzed with a flow cytometer.

[6] = system: cancer-associated fibroblasts (CAF); experiment: Cancer-associated fibroblasts in MC38 tumor sections (Experimental Example 15); type: in vivo, mice (C57BL6); conditions: oral administration for one week, vs vehicle
Description: 1) The untreated group and 3) the single-administration group of PAI-1 inhibitor (cancer-bearing mice) of Experimental Example 11, after tumor engraftment, were orally administered with physiological saline (vehicle) or the PAI-1 inhibitor for one week. Thereafter, the tumor was collected, fixed with paraformaldehyde, and then embedded in paraffin to prepare tissue sections. The tissue sections were stained with an anti-SMAcα antibody, and the percentage of cancer-associated fibroblasts (CAF) was observed under a microscope.

CD8+ T cells = experiment: Cytotoxic T cells in MC38 tumor mass by flow cytometry (Experimental Example 16); type: in vivo, mice (C57BL6); conditions: oral administration for one week, vs vehicle
Description: 1) The untreated group and 3) the single-administration group of PAI-1 inhibitor (cancer-bearing mice) of Experimental Example 11, after tumor engraftment, were orally administered with physiological saline (vehicle) or the PAI-1 inhibitor for one week. Thereafter, the tumor was collected, the T cells were stained with an anti-CD45 antibody, an anti-CD3 antibody, an anti-CD4 antibody, an anti-CD8 antibody, and an anti-perforin antibody, and the percentage of cytotoxic T cells in the tumor mass was determined with a flow cytometer.

[7] = non-clinical and clinical studies (JP2020-088416A); cited from earlier work

O=C(Nc1ccc(Cl)cc1C(=O)[O-])c1cccc(-c2cccc3cccnc23)c1.[Na+] [Example 68, 5-chloro-2-(((3-(quinolin-8-yl)phenyl)carbonyl)amino)sodium benzoate]
PD-L1 expression level in leukemia cells [1]: reduced PD-L1 expression level; also recorded: lower PD-L1 expression level | enhancement of PD-L1 expression by rPAI-1 in M2 macrophages [2]: completely suppressed | PD-L1 expression level in M2 macrophages [3]: reduction in the PD-L1 expression level | size of the tumor mass [4]: significantly regressed; also recorded: tumor regression | percentage of regulatory T cells in the tumor [5]: reduced | percentage of intratumoral infiltration of cancer-associated fibroblasts [6]: reduced | percentage of intratumoral infiltration of CD8+ T cells (effector T cells) (CD8+ T cells): increased | safety by oral administration [7]: no safety issues
